SMILES strings stand for the structures.

Experimental findings from PMC6934184, “Selective DNA-PKcs inhibition extends the therapeutic index of localized radiotherapy and chemotherapy” (The Journal of Clinical Investigation, 2019) are described below.

This test addresses T1, RPS6KA2 (RSK3) (Homo sapiens, UniProt Q15349).
T1 construct: purchased Thermo Fisher Scientific (Life Technologies) SelectScreen
Briefly: SelectScreen Z'LYTE. It counts as biochemical. An outline of the steps: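 NU5455 was profiled across the SelectScreen Broad panel of kinase activity and binding assays. Z'LYTE reactions such as CSF1R ran at apparent Km ATP, while the Adapta CAMK1 assay used ATP listed as 10. Values are given as percent.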

T1 sequence (Q15349 whole entry): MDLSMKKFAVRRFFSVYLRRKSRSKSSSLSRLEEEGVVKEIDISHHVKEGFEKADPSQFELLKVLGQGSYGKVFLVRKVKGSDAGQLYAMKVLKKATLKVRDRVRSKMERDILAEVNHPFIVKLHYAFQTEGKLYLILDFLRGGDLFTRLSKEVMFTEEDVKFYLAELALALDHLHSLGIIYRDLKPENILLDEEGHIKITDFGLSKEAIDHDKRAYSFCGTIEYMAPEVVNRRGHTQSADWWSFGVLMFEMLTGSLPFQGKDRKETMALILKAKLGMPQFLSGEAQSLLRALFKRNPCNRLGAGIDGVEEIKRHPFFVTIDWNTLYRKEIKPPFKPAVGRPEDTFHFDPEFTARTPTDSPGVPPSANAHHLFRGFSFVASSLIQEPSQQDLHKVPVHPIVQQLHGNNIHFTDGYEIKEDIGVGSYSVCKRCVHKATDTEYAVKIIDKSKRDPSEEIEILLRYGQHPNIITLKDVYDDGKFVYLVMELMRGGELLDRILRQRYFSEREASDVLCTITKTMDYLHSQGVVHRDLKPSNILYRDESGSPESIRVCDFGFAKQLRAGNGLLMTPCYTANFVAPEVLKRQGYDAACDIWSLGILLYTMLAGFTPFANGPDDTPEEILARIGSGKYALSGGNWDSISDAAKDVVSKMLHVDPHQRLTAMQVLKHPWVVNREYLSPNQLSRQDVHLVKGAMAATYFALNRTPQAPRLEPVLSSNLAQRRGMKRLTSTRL

On to `CN(C(=O)CN1CCOCC1)c1ccc2sc3c(-c4cccc5c(=O)cc(N6CC7CCC(C6)O7)oc45)cccc3c2c1` [NU5455], for which testing at 1 µM gave an inhibition of 10.8%.
